Values quoted from earlier work in publication PMC10866072, “Design, synthesis, molecular modelling and biological evaluation of novel 6-amino-5-cyano-2-thiopyrimidine derivatives as potent anticancer agents against leukemia and apoptotic inducers” (Journal of Enzyme Inhibition and Medicinal Chemistry, 2024).

Legend:
MGC-803 cell line = test system: MGC-803 cell line; set-up: method as in PMID 27771599; details: cited from earlier work
GES1 = test system: GES1; set-up: method as in PMID 27771599; details: cited from earlier work

In the case of `C/C(=N\Nc1nc(Sc2ccccc2)nc2c1nnn2-c1ccccc1)c1ccccc1O` [XXII], the IC50 (MGC-803 cell line) is listed as 0.87 µM and the IC50 (GES1) is listed as 56.2 µM.
